Measurements: PubChem BioAssay AID330 (DTP/NCI, 2004)
Values joined by “and” are separate entries in the source; they are usually repeats but may differ in a detail not shown here. Equal values may be shown once. Inconclusive results and toxic doses are left out.

System: P388 leukemia ip, CD2F1 mice, survival T/C
Assay: NCI In Vivo Anticancer Drug Screen. Data for tumor model P388 Leukemia (intraperitoneal) in CD2F1 (CDF1) mice
Conditions: endpoint: median survival time, higher = longer survival
How it was run: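 Mice carrying the transplanted tumor received test compound or vehicle. Survival was recorded in each group, and the value is the treated-group measurement divided by that of the vehicle-treated control group.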

[1] = dose: 12.5 mg/kg/injection, schedule: Q01DX009 (ip), vehicle: Klucel (hydroxypropylcellulose) (HPC)
[2] = dose: 25.0 mg/kg/injection, schedule: Q01DX009 (ip), vehicle: saline with Tween-80
[3] = dose: 50.0 mg/kg/injection, schedule: Q01DX009 (ip), vehicle: saline with Tween-80
[4] = dose: 100.0 mg/kg/injection, schedule: Q01DX009 (ip), vehicle: saline with Tween-80
[5] = dose: 12.5 mg/kg/injection, schedule: Q01DX005 (ip), vehicle: saline with Tween-80
[6] = dose: 25.0 mg/kg/injection, schedule: Q01DX005 (ip), vehicle: saline with Tween-80
[7] = dose: 50.0 mg/kg/injection, schedule: Q01DX005 (ip), vehicle: saline with Tween-80
[8] = dose: 100.0 mg/kg/injection, schedule: Q01DX005 (ip), vehicle: saline with Tween-80
[9] = dose: 50.0 mg/kg/injection, schedule: Q01DX009 (ip), vehicle: Klucel (hydroxypropylcellulose) (HPC)
[10] = dose: 200.0 mg/kg/injection, schedule: Q01DX005 (ip), vehicle: saline with Tween-80
[11] = dose: 50.0 mg/kg/injection, schedule: Q01DX005 (ip), vehicle: Klucel (hydroxypropylcellulose) (HPC)
[12] = dose: 60.0 mg/kg/injection, schedule: Q01DX005 (ip), vehicle: saline with Tween-80
[13] = dose: 120.0 mg/kg/injection, schedule: Q01DX005 (ip), vehicle: saline with Tween-80
[14] = dose: 240.0 mg/kg/injection, schedule: Q01DX005 (ip), vehicle: saline with Tween-80
[15] = dose: 200.0 mg/kg/injection, schedule: Q01DX009 (ip), vehicle: saline with Tween-80
[16] = dose: 25.0 mg/kg/injection, schedule: Q01DX009 (ip), vehicle: other

In the case of `N#CC1(N2CCCCC2)CCCCC1`, the T/C (dose: 3.13 mg/kg/injection, schedule: Q01DX009 (ip), vehicle: Klucel (hydroxypropylcellulose) (HPC)) was 106 % of control, the T/C (dose: 6.25 mg/kg/injection, schedule: Q01DX009 (ip), vehicle: Klucel (hydroxypropylcellulose) (HPC)) was 103 % of control and the T/C [1] was 93 % of control.
In the case of `C(=C\c1cccnc1)/c1ccncc1`, the T/C [2] was 95 % of control, the T/C [3] was 104 % of control and the T/C [4] was 109 % of control.
For `C/C(=N\NC(=S)N1CCC(C)CC1)c1nccs1`, the T/C [5] was 106 % of control, the T/C [6] was 116 % of control and the T/C [7] was 118 % of control.
In the case of `CN(C)[C@@H]1C(=O)C(C(N)=O)=C(O)[C@@]2(O)C(=O)C3=C(O)c4c(O)ccc(Cl)c4[C@@](C)(O)[C@H]3C[C@@H]12.[Cl][Sb]([Cl])[Cl]`, the T/C [5] was 108 % of control, the T/C [7] was 116 % of control and 120 % of control and the T/C [8] was 104 % of control.
For `CC1COCC(C)OC(C)COCC(C)OC(=O)COCC(=O)O1` (stereo unspecified), the T/C (dose: 100.0 mg/kg/injection, schedule: Q04DX003 (ip), vehicle: Klucel (hydroxypropylcellulose) (HPC)) was 104 % of control, the T/C (dose: 200.0 mg/kg/injection, schedule: Q04DX003 (ip), vehicle: Klucel (hydroxypropylcellulose) (HPC)) was 110 % of control and the T/C (dose: 400.0 mg/kg/injection, schedule: Q04DX003 (ip), vehicle: Klucel (hydroxypropylcellulose) (HPC)) was 103 % of control.
With `c1cnc2nsnc2c1` the T/C [1] was 100 % of control, the T/C (dose: 25.0 mg/kg/injection, schedule: Q01DX009 (ip), vehicle: Klucel (hydroxypropylcellulose) (HPC)) was 97 % of control and the T/C [9] was 100 % of control and 106 % of control.
For `NC(=O)NCP(=O)(CNC(N)=O)CNC(N)=O`, the T/C (dose: 50.0 mg/kg/injection, schedule: Q01DX005 (ip), vehicle: saline) was 100 % of control, the T/C (dose: 100.0 mg/kg/injection, schedule: Q01DX005 (ip), vehicle: saline) was 97 % of control and the T/C (dose: 200.0 mg/kg/injection, schedule: Q01DX005 (ip), vehicle: saline) was 95 % of control.
With `Cc1nn(C)c(=O)[nH]c1=O` the T/C [7] was 103 % of control, the T/C [8] was 106 % of control and the T/C [10] was 106 % of control.
In the case of `O=C(CCC(=O)Nc1ccc2[nH]c3ccccc3c(=O)c2c1)Nc1ccc2[nH]c3ccccc3c(=O)c2c1`, the T/C (dose: 60.0 mg/kg/injection, schedule: Q01DX005 (ip), vehicle: Klucel (hydroxypropylcellulose) (HPC)) was 99 % of control, the T/C (dose: 120.0 mg/kg/injection, schedule: Q01DX005 (ip), vehicle: Klucel (hydroxypropylcellulose) (HPC)) was 96 % of control and the T/C (dose: 240.0 mg/kg/injection, schedule: Q01DX005 (ip), vehicle: Klucel (hydroxypropylcellulose) (HPC)) was 97 % of control.
With `CN(C)C1=CC(=S)NC2CCCCC12` (stereo unspecified) the T/C [11] was 99 % of control, the T/C (dose: 100.0 mg/kg/injection, schedule: Q01DX005 (ip), vehicle: Klucel (hydroxypropylcellulose) (HPC)) was 95 % of control and the T/C (dose: 200.0 mg/kg/injection, schedule: Q01DX005 (ip), vehicle: Klucel (hydroxypropylcellulose) (HPC)) was 102 % of control.
For `c1ccc2c(SC3CCC4CC5CC4C3C5)nccc2c1` (stereo unspecified), the T/C [12] was 91 % of control, the T/C [13] was 94 % of control and the T/C [14] was 91 % of control.
`NS(=O)(=O)c1cccc(NC(=O)c2ccco2)c1` was tested, and the T/C [9] was 102 % of control, the T/C (dose: 100.0 mg/kg/injection, schedule: Q01DX009 (ip), vehicle: Klucel (hydroxypropylcellulose) (HPC)) was 101 % of control and the T/C (dose: 200.0 mg/kg/injection, schedule: Q01DX009 (ip), vehicle: Klucel (hydroxypropylcellulose) (HPC)) was 94 % of control.
For `COc1ccc(/C=C/c2ccnnc2)cc1`, the T/C (dose: 50.0 mg/kg/injection, schedule: Q01DX009 (ip), vehicle: saline) was 99 % of control and 102 % of control, the T/C (dose: 100.0 mg/kg/injection, schedule: Q01DX009 (ip), vehicle: saline) was 108 % of control and the T/C (dose: 200.0 mg/kg/injection, schedule: Q01DX009 (ip), vehicle: saline) was 99 % of control and 94 % of control.
`CCOC(=O)C(Br)c1cccc(OC)c1` (stereo unspecified) was tested, and the T/C [4] was 91 % of control, the T/C [15] was 95 % of control and the T/C (dose: 400.0 mg/kg/injection, schedule: Q01DX009 (ip), vehicle: saline with Tween-80) was 95 % of control.
In the case of `O=[C-]c1ccccc1[C-]=O.[I][Ni+2][I]`, the T/C (dose: 6.25 mg/kg/injection, schedule: Q01DX005 (ip), vehicle: saline) was 94 % of control, the T/C (dose: 12.5 mg/kg/injection, schedule: Q01DX005 (ip), vehicle: saline) was 94 % of control and the T/C (dose: 25.0 mg/kg/injection, schedule: Q01DX005 (ip), vehicle: saline) was 110 % of control.
`Cc1cc(NCCCCCCNc2cc(C)nc3ccc(N)cc23)c2cc(N)ccc2n1` was tested, and the T/C (dose: 75.0 mg/kg/injection, schedule: Q04DX003 (ip), vehicle: alcohol) was 177 % of control, the T/C (dose: 150.0 mg/kg/injection, schedule: Q04DX003 (ip), vehicle: alcohol) was 186 % of control and the T/C (dose: 300.0 mg/kg/injection, schedule: Q04DX003 (ip), vehicle: alcohol) was 190 % of control.
For `O=C(/C=C/c1cccs1)c1ccc(O)c(C(=O)O)c1`, the T/C [2] was 96 % of control, the T/C [3] was 105 % of control and the T/C [4] was 103 % of control.
For `COc1ccc(C(=O)Nc2ccccc2-c2ccccc2)cc1OC`, the T/C [7] was 105 % of control, the T/C [8] was 97 % of control and the T/C [10] was 103 % of control.
With `CC(c1ccccc1)N1OC1(C)C` (stereo unspecified) the T/C (dose: 12.5 mg/kg/injection, schedule: Q01DX005 (ip), vehicle: Klucel (hydroxypropylcellulose) (HPC)) was 101 % of control, the T/C (dose: 25.0 mg/kg/injection, schedule: Q01DX005 (ip), vehicle: Klucel (hydroxypropylcellulose) (HPC)) was 106 % of control and the T/C [11] was 102 % of control.
In the case of `Cc1cnc(C#N)c(Cl)n1`, the T/C [4] was 100 % of control, the T/C (dose: 100.0 mg/kg/injection, schedule: Q04DX003 (ip), vehicle: saline with Tween-80) was 110 % of control and the T/C [15] was 115 % of control. The T/C (dose: 200.0 mg/kg/injection, schedule: Q04DX003 (ip), vehicle: saline with Tween-80) was 110 % of control and the T/C (dose: 400.0 mg/kg/injection, schedule: Q04DX003 (ip), vehicle: saline with Tween-80) was 100 % of control.
For `COc1ccc(S(=O)(=O)NNS(=O)(=O)c2ccc(OC)c(OC)c2)cc1OC`, the T/C [5] was 95 % of control, the T/C [6] was 99 % of control and the T/C [7] was 94 % of control and 96 % of control.
With `Oc1cc2c3c(c1)c1cc4c(cc1c[n+]3CC2)OCO4` the T/C (dose: 6.25 mg/kg/injection, schedule: Q01DX009 (ip), vehicle: other) was 151 % of control, the T/C (dose: 10.0 mg/kg/injection, schedule: Q01DX005 (ip), vehicle: acid diluted with saline) was 119 % of control and the T/C (dose: 12.5 mg/kg/injection, schedule: Q01DX009 (ip), vehicle: other) was 155 % of control. For the same compound, the T/C (dose: 20.0 mg/kg/injection, schedule: Q01DX005 (ip), vehicle: acid diluted with saline) was 119 % of control and the T/C [16] was 164 % of control.
With `O=C(CC(=O)c1ccc(Cl)c(Cl)c1)Cc1ccc2ccccc2n1` the T/C [12] was 90 % of control, the T/C [13] was 97 % of control and the T/C [14] was 88 % of control.
In the case of `C=Cc1c(C)c(OC(C)=O)cc2c1-c1ccc(OC(C)=O)c(C)c1CC2`, the T/C (dose: 2.25 mg/kg/injection, schedule: Q01DX009 (ip), vehicle: Klucel (hydroxypropylcellulose) (HPC)) was 103 % of control, the T/C (dose: 4.5 mg/kg/injection, schedule: Q01DX009 (ip), vehicle: Klucel (hydroxypropylcellulose) (HPC)) was 100 % of control and the T/C (dose: 9.0 mg/kg/injection, schedule: Q01DX009 (ip), vehicle: Klucel (hydroxypropylcellulose) (HPC)) was 94 % of control. The T/C (dose: 18.0 mg/kg/injection, schedule: Q01DX009 (ip), vehicle: Klucel (hydroxypropylcellulose) (HPC)) was 100 % of control.
With `O=C1OCCC1C(O)c1ccccc1` (stereo unspecified) the T/C [16] was 110 % of control, the T/C (dose: 50.0 mg/kg/injection, schedule: Q01DX009 (ip), vehicle: other) was 102 % of control and the T/C (dose: 100.0 mg/kg/injection, schedule: Q01DX009 (ip), vehicle: other) was 110 % of control. For the same compound, the T/C (dose: 200.0 mg/kg/injection, schedule: Q01DX009 (ip), vehicle: other) was 107 % of control and the T/C (dose: 400.0 mg/kg/injection, schedule: Q01DX009 (ip), vehicle: other) was 111 % of control.
With `C=C1C(=O)OC2CC3(CO3)C3CC(OC(C)=O)C(=C)C3(O)CC12` (stereo unspecified) the T/C (dose: 8.0 mg/kg/injection, schedule: Q01DX009 (ip), vehicle: Klucel (hydroxypropylcellulose) (HPC)) was 99 % of control, the T/C (dose: 16.0 mg/kg/injection, schedule: Q01DX009 (ip), vehicle: Klucel (hydroxypropylcellulose) (HPC)) was 116 % of control and the T/C (dose: 32.0 mg/kg/injection, schedule: Q01DX009 (ip), vehicle: Klucel (hydroxypropylcellulose) (HPC)) was 119 % of control. The T/C (dose: 64.0 mg/kg/injection, schedule: Q01DX009 (ip), vehicle: Klucel (hydroxypropylcellulose) (HPC)) was 114 % of control.
